Measurements as given in ChEMBL document CHEMBL1201862, “PubChem BioAssay data set” (2004).
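Results reflect a 48-hour exposure of cells in 96-well plates to compound at five concentrations. GI50: concentration for 50% inhibition of growth.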 Activity calls are given as the source filed them. No stated cut-off is given here; in the data, active = GI50 up to about 1.1 µM and inactive = higher. Residues, ends and D or L forms follow the SMILES beside them. Groups on a side chain read outwards from the residue. *: point of attachment. Cbz = O=C(OCc1ccccc1)*; Boc = CC(C)(C)OC(=O)*

What was measured:
Assay in all cases: DTP human tumour cell line panel, 48 h
NCI-H522 = system: NCI-H522
OVCAR-3 = system: OVCAR-3
HCT-15 = system: HCT-15
TK-10 = system: TK-10
SNB-19 = system: SNB-19
NCI-H23 = system: NCI-H23
NCI-H460 = system: NCI-H460
UACC-62 = system: UACC-62
KM12 = system: KM12
EKVX = system: EKVX
SK-MEL-28 = system: SK-MEL-28
OVCAR-8 = system: OVCAR-8
LOX IMVI = system: LOX IMVI
SF-539 = system: SF-539
Malme-3M = system: Malme-3M

Structure (SMILES)	GI50 (NCI-H522)	GI50 (OVCAR-3)	GI50 (HCT-15) [µM]	GI50 (TK-10)	GI50 (SNB-19)	GI50 (NCI-H23)	GI50 (NCI-H460)	GI50 (UACC-62)	GI50 (KM12)	GI50 (EKVX)	GI50 (SK-MEL-28)	GI50 (OVCAR-8)	GI50 (LOX IMVI)	GI50 (SF-539)	GI50 (Malme-3M)
COc1nc(O)nc2c1C(c1ccc([N+](=O)[O-])cc1)c1c(OC)nc(O)nc1O2	> 100 µM (inactive)	> 100 µM (inactive)	> 100	> 100 µM (inactive)	> 100 µM (inactive)	> 100 µM (inactive)	> 100 µM (inactive)	> 100 µM (inactive)	> 100 µM (inactive)	> 100 µM (inactive)	> 100 µM (inactive)	> 100 µM (inactive)			
C[C@]12C(=O)OC[C@H](c3ccccc3)N1C(=O)N(Cc1ccccc1)[C@@H]2CO		> 100 µM (inactive)	> 100	> 100 µM (inactive)	> 100 µM (inactive)		> 100 µM (inactive)	> 100 µM (inactive)	> 100 µM (inactive)	> 100 µM (inactive)	> 100 µM (inactive)	> 100 µM (inactive)	> 100 µM (inactive)	> 100 µM (inactive)	> 100 µM (inactive)
NC(=O)C(NC=O)c1ccccc1 (centres undefined)	> 100 µM (inactive)	> 100 µM (inactive)	> 100	> 100 µM (inactive)	> 100 µM (inactive)	> 100 µM (inactive)	> 100 µM (inactive)	> 100 µM (inactive)	> 100 µM (inactive)	> 100 µM (inactive)	> 100 µM (inactive)	> 100 µM (inactive)	> 100 µM (inactive)	> 100 µM (inactive)	
N/C1=C/C(=O)NC(=O)c2c(c3ccccc3oc2=O)C1	> 100 µM (inactive)	> 100 µM (inactive)	> 100	> 100 µM (inactive)	> 100 µM (inactive)	> 100 µM (inactive)	> 100 µM (inactive)	> 100 µM (inactive)	> 100 µM (inactive)	46.7 µM (inactive)	> 100 µM (inactive)	> 100 µM (inactive)	> 100 µM (inactive)		> 100 µM (inactive)
CCOC(=O)C1C(=O)CC(C)(O)C(C(=O)OCC)C1c1ccc(N(C)C)cc1 (centres undefined)	> 100 µM (inactive)	> 100 µM (inactive)	> 100	> 100 µM (inactive)	> 100 µM (inactive)	> 100 µM (inactive)	> 100 µM (inactive)	> 100 µM (inactive)	> 100 µM (inactive)	> 100 µM (inactive)	> 100 µM (inactive)	> 100 µM (inactive)	> 100 µM (inactive)		> 100 µM (inactive)
Clc1cc(Cl)c2cc3cccc[n+]3cc2c1Cl		12.1 µM (inactive)	18.3	18.7 µM (inactive)	14.9 µM (inactive)	16.1 µM (inactive)	16.3 µM (inactive)	15.3 µM (inactive)	> 10 µM (inactive)	13.8 µM (inactive)	15.5 µM (inactive)	15.1 µM (inactive)	15.7 µM (inactive)	18.3 µM (inactive)	22.2 µM (inactive)
Nc1ncnc2c1ncn2C1C=CC(COS(N)(=O)=O)C1 (centres undefined)		31 µM (inactive)	9.27	> 100 µM (inactive)	9.23 µM (inactive)	9.77 µM (inactive)	12.2 µM (inactive)	20.6 µM (inactive)	19.2 µM (inactive)	> 100 µM (inactive)	20.5 µM (inactive)	13.1 µM (inactive)	5.53 µM (inactive)	0.676 µM (active)	> 100 µM (inactive)
CC(C)(C)OC(=O)NC(CCCCNC(=O)CNC(=O)OCc1ccccc1)C(=O)NC(CCCCNC(=O)CNC(=O)OCc1ccccc1)C(=O)NC(CCCCNC(=O)CNC(=O)OCc1ccccc1)C(=O)NC(CCCCNC(=O)CNC(=O)OCc1ccccc1)C(=O)O (centres undefined) (Boc-K([Gly-Cbz])K([Gly-Cbz])K([Gly-Cbz])K([Gly-Cbz])-OH; configuration not given here)	> 100 µM (inactive)	> 100 µM (inactive)	> 100	> 100 µM (inactive)	> 100 µM (inactive)	> 100 µM (inactive)	> 100 µM (inactive)	> 100 µM (inactive)			> 100 µM (inactive)	> 100 µM (inactive)	> 100 µM (inactive)		> 100 µM (inactive)
COc1ccc(N2C(=O)/C(=C\c3cccc(Oc4ccccc4)c3)S(=O)(=O)C2c2ccccc2)cc1 (centres undefined)	12.3 µM (inactive)	28.1 µM (inactive)	21	37.1 µM (inactive)	47 µM (inactive)	28.4 µM (inactive)	36.7 µM (inactive)	25.1 µM (inactive)	22.5 µM (inactive)	15.7 µM (inactive)	> 100 µM (inactive)		27.6 µM (inactive)		24.4 µM (inactive)
COc1cc(OC)cc(Oc2nc3ccccc3nc2C(=O)O)c1	> 100 µM (inactive)	> 100 µM (inactive)	> 100	> 100 µM (inactive)	> 100 µM (inactive)	> 100 µM (inactive)	> 100 µM (inactive)	> 100 µM (inactive)	> 100 µM (inactive)	> 100 µM (inactive)	> 100 µM (inactive)	> 100 µM (inactive)	> 100 µM (inactive)		> 100 µM (inactive)
